Assays:
factor Xa = experiment: Anti-Xa activity measured using Test Team Heparin S (Sekisui Medical); format: biochemical; conditions: for Anti-Xa/anti-IIa activity ratio: ratio of anti-Xa activity to anti-IIa activity
Description: Herein, the factor Xa inhibitory activity (anti-Xa activity) can be measured using Test Team (registered trademark) Heparin S (manufactured by Sekisui Medical Co., Ltd.).
Using Test Team (registered trademark) Heparin S (manufactured by Sekisui Medical Co., Ltd.), the anti-Xa activity of pentosan polysulfate sodium was measured.
(§1) The content of acetyl groups, the content of sulfur, the anti-Xa activity, and the anti-IIa activity were measured in the same manners as those of Examples 1 to 5.

factor IIa = target: T1, factor IIa (Homo sapiens, UniProt P00734); experiment: Anti-IIa activity measured using Biophen heparin anti-IIa (Hyphen Biomed); format: biochemical
T1 construct: purchased Hyphen Biomed
Description: Moreover, the factor IIa inhibitory activity (anti-IIa activity) can be measured using Biophen heparin anti-IIa (manufactured by Hyphen Biomed).
Using Biophen heparin anti-IIa (manufactured by Hyphen Biomed), the anti-IIa activity of pentosan polysulfate sodium was measured.
as §1

[1] = Table 1, influence of content of acetyl groups
[2] = Table 3, influence of molecular weight

Substance	Anti-IIa activity (IU/mg) (factor IIa; [1])	Anti-IIa activity (IU/mg) (factor IIa; [2])	Anti-Xa activity (IU/mg) (factor Xa; [1])	Anti-Xa/anti-IIa activity ratio (factor Xa; Table 1)	Anti-Xa activity (IU/mg) (factor Xa; [2])	Anti-Xa/anti-IIa activity ratio (factor Xa; Table 3)
pentosan polysulfate sodium [Ex. 2]	0.1845	–	0.2588	1.403	–	–
pentosan polysulfate sodium [Comp. Ex. 4]	–	6.80	–	–	0.73	0.11
pentosan polysulfate sodium [Comp. Ex. 1, reference compound]	0.0221	–	0.0840	3.801	–	–
pentosan polysulfate sodium [Ex. 1]	0.1405	–	0.2047	1.457	–	–
pentosan polysulfate sodium [Comp. Ex. 2]	–	15.52	–	–	1.69	0.11
pentosan polysulfate sodium [Comp. Ex. 3, reference compound]	–	62.12	–	–	16.61	0.15

Continued, in another order:

Anti-IIa activity (IU/mg) (factor IIa; [1])	Anti-IIa activity (IU/mg) (factor IIa; [2])	Substance	Anti-Xa activity (IU/mg) (factor Xa; [1])	Anti-Xa/anti-IIa activity ratio (factor Xa; Table 1)	Anti-Xa activity (IU/mg) (factor Xa; [2])	Anti-Xa/anti-IIa activity ratio (factor Xa; Table 3)
0.0934	–	pentosan polysulfate sodium [Ex. 4]	0.2419	2.591	–	–
0.0676	–	pentosan polysulfate sodium [Ex. 3]	0.2439	3.607	–	–
–	0.43	pentosan polysulfate sodium [Ex. 8]	–	–	0.22	0.51
–	0.12	pentosan polysulfate sodium [Ex. 7]	–	–	0.15	1.25
0.0976	–	pentosan polysulfate sodium [Ex. 5]	0.2297	2.352	–	–
–	0.15	pentosan polysulfate sodium [Ex. 6]	–	–	0.67	4.29

— patent US11274165B2, “Pentosan polysulfate, pharmaceutical composition, and anticoagulant” (OJI HOLDINGS CORPORATION, priority 2017, dated 2022)
